Measured values published in patent US6350739B1, “Methods of prevention and treatment of ischemic damage” (University of Florida Resarch Foundation, Inc., priority 1999, dated 2002).
Entries after “also recorded” stand apart in the source; their conditions may differ. Marks after values point to notes of the source that are not given here.

Columns and labels:
[1] = test system: ischemia induced by middle cerebral artery occlusion (MCAO); assay: Pretreatment with estrogen compound before middle cerebral artery occlusion (MCAO) in ovariectomized rats; assay type: in vivo, rat; parameters: % Survival: concentration or dose not given beside the values
Procedure: Rats were used as experimental models to test the effects of estrogen compounds in protecting against ischemic damage. To remove the naturally occurring source of estrogen, ovariectomies were performed prior to induction of ischemia.
Subsequent to the ovariectomy, rats were treated with an estrogen compound either by subcutaneous delivery with Silastic® tubes 24 hours prior to the MCA occlusion or by intravenous delivery as follows:
Subcutaneous sustained delivery: 17β- or 17α-estradiol was packed into 5 mm long Silastic® tubes (Dow-Corning, Midland, Mich.) according to the method of Mohammed et al. 1985 Ann. Neurol 18, 705-711. Sham (empty) tubes were similarly prepared as estrogen negative controls. […]
The control was administered HPCD only. The chemical delivery system is formulated so that the estrogen is slowly released from the carrier.
At 7 to 8 days after ovariectomy, a method for occluding the […] was applied to the rat using modifications of the methods of Longa et al. (1989) Stroke, vol. 20, 84-91; and Nagasawa et al. (1989) Stroke, vol.20, 1037-1043, with certain modifications, as described herein.
Animals were anesthetized by ip injection with ketamine (60 mg/kg) and xylazine (10 mg/kg). Rectal temperature was monitored and maintained between 36.5 and 37.0 C with a heat lamp throughout the entire procedure. The left carotid artery was exposed through a midline cervical incision. The left sternohyloid, sternomastoid, digastric (posterior belly) and the omohyloid muscles were divided and retracted. Part of the greater horn of the hyloid bone was cut to facilitate exposure of the distal external carotid artery (ECA). The common carotid artery (CCA), ECA, and internal carotid artery (ICA) were dissected away from adjacent nerves. The distal ECA and its branches, the CCA, and the pterygopalatine arteries were coagulated completely. A microvascular clip was placed on the ICA near skull base. A 2.5 cm length of 3-0 monofilament nylon suture was heated to create a globule for easy movement and blocking of the lumen of the vessel. This was introduced into the ECA lumen through the puncture. The suture was gently advanced to the distal ICA until it reached the clipped position. The microvascular clip was then removed and the suture was inserted until resistance was felt. The distance between the CCA bifurcation and the resistive point was about 1.8 cm. This operative procedure was completed within 10 minutes without bleeding. After the prescribed occlusion tine (40 minutes), the suture was withdrawn from the ICA and the distal ICA was immediately cauterized.
Animals that survived until the scheduled sacrifice time were sacrificed by decapitation. Scheduled post-ischemic sacrifices occurred at 6 hours, 24 hours and 1 week post MCAO (Table 1). For the 6-hour sample, animals were monitored continuously. […] Similarly, animals scheduled for the 1 week post-ischemic sacrifice were monitored for the first 4 hours after surgery and then daily thereafter.
The brains were isolated from the decapitated heads, sliced into 3 or 5 coronal tissue slices as described below and then stained with hematoxylin and eosin to determine the extent of the ischemic area Stained slices were photographed and subsequently imaged using a Macintosh Cadre 800 computer, equipped with an Image 1.47 software program for the assessment of the cross-sectional area of the ischemic lesion. These images and the calculated area of ischemic damage were stored in the program for later retrieval and data reduction. The significance of differences in mortality among the different treatment groups was determined using Chi-Square analysis.
Ovariectomized rats were treated with 5 mm Silastic® tubes containing 17α-estradiol at 24 hours prior to MCAO. At 24 hours after the MCAO, the animals were sacrificed and the brains extracted.

[2] = test system: ischemia induced by middle cerebral artery occlusion (MCAO); assay: Post-treatment with E2-CDS after onset of MCAO in ovariectomized rats; assay type: in vivo, rat
Procedure: At 7 to 8 days after ovariectomy, a method for occluding the middle carotid artery was applied to the rat using modifications of the methods of Longa et al. (1989) Stroke, vol.
Animals were anesthetized by ip injection with ketamine (60 mg/kg) and xylazine (10 mg/kg). Rectal temperature was monitored and maintained between 36.5 and 37.0 C with a heat lamp throughout the entire procedure. The left carotid artery was exposed through a midline cervical incision. The left sternohyloid, sternomastoid, digastric (posterior belly) and the omohyloid muscles were divided and retracted. Part of the greater horn of the hyloid bone was cut to facilitate exposure of the distal external carotid artery (ECA). The common carotid artery (CCA), ECA, and internal carotid artery (ICA) were dissected away from adjacent nerves. The distal ECA and its branches, the CCA, and the pterygopalatine arteries were coagulated completely. A microvascular clip was placed on the ICA near skull base. A 2.5 cm length of 3-0 monofilament nylon suture was heated to create a globule for easy movement and blocking of the lumen of the vessel. This was introduced into the ECA lumen through the puncture. The suture was gently advanced to the distal ICA until it reached the clipped position. The microvascular clip was then removed and the suture was inserted until resistance was felt. […]

[3] = test system: primary rat brain capillary endothelial cells (BCEC); assay: Brain capillary endothelial cell mortality under hypoglycemia (Trypan blue); assay type: cell-based; conditions: 2 nM
Procedure: Neurochemistry vol. 25, 715-717, 1975, incorporated herein by reference. […] The glucose concentration of the culture media was then adjusted from 20 mg % to 200 mg % by adding appropriate amount of D-(+)-glucose to the glucose-free media and monitored by Glucose and L-Lactate Analyzer (YSI model 2300 STAT plus, YSI, Inc., Yellow Springs, Ohio). The hypoglycemic cultures were maintained for 24 hours or 48 hours prior to staining with Trypan blue. Cell mortality was counted using Trypan blue staining method. Cell death percentage was calculated as dead cell/alive cell×100%. Statistical methods used included two-way analysis of variance, applied to determine the significance of the difference among the experimental groups. Kruskal-Wallis nonparametric analysis was used for data presented as percentage. […] P<0.05 was considered significant.

[4] = test system: primary rat brain capillary endothelial cells (BCEC); assay: Brain capillary endothelial cell mortality under anoxia (Trypan blue); assay type: cell-based; conditions: 2 nM, 200 mg % glucose
Procedure: (§1) Primary rat brain capillary endothelial cells (BCEC) cultures were prepared following the method of Goldstein, J. Neurochemistry vol.
(§2) Nitrogen gas was influxed to replace the oxygen inside the chamber. The chamber was sealed and placed in the incubator for four hours for nonhypoglycemic cultures and 2 hours for hypoglycemic cultures.

[5] = test system: primary rat brain capillary endothelial cells (BCEC); assay: Brain capillary endothelial cell mortality under combined anoxia and hypoglycemia; assay type: cell-based; conditions: 2 nM; 100 mg % glucose and 2 hours anoxia
Procedure: as §1, §2

[6] = test system: ischemia induced by middle cerebral artery occlusion (MCAO); assay: Post-treatment at 0.5, 1, 2, 3 and 4 hours after MCAO, ischemic lesion volume; assay type: in vivo, rat; conditions: iv 100 μg/kg HPCD-complexed plus Silastic pellet at 0.5, 1, 2, or 3 hours post-occlusion; 48 hours after MCAO
Procedure: Ovariectomized, non-treated animals (OVX) and non-ovariectomized, non-treated animals (INT) were used as controls (n=12 and n=6, respectively). At 48 hours following MCAO, animals were sacrificed and ischemic lesion volume was determined by obtaining brain sections as previously described and staining with TTC.

[7] = test system: middle cerebral artery (MCA) occlusion; assay: Pretreatment with ent-17β-estradiol or 17β-estradiol sc in oil before MCA occlusion; assay type: in vivo, Sprague-Dawley female rats; conditions: for infarct area (mean±SEM): 100 μg/kg sc in oil 2 hours prior to 60 minute MCA occlusion, 24 hours reperfusion, vehicle 13.3±2.0
Procedure: Sprague-Dawley female rats ([…] body weight) were purchased from Charles River Laboratories, Inc. (Wilmington, Mass.). They were housed in pairs in hanging, stainless steel cage in a temperature controlled room (25° C.) with daily light cycle (light on 0700 to 1900 h daily) for a minimum of 3 days before surgery. All rats had free access to Purina Rat Chow and tap water. All procedures performed on animals were reviewed and approved by the Institutional Animal Care and Use Committee of the University of Florida before initiation of the study. Animals were ovariectomized at 1 week prior to middle cerebral artery (MCA) occlusion.
MCAO was achieved according to the methods described previously by us. Briefly, following administration of anesthetics of ketamine (60 mg/kg, ip) and xylazine (10 mg/kg, ip), the common carotid artery […] on the left side were exposed through a midline cervical incision and then gently dissected away from adjacent nerves. A 3-0 monofilament nylon suture was introduced into the left […] and gently advanced to the distal ICA until resistance was felt where the suture passed the bifurcation of the MCA and anterior cerebral artery (ACA). The thread was left in place for 60 minutes after which time re-perfusion was initiated. Rectal temperature was monitored and maintained between 36.5 and 37.0° C. during the entire stroke procedure. Each group of animals was decapitated after 24 hours of reperfusion. The brain was removed and placed in a metallic brain matrix for tissue slicing immediately after sacrifice. Five slices were made at […] posterior to the olfactory bulb. The slices were incubated for 30 minutes in a 2% solution of 2,3,5-triphenyltetrazolium chloride (ITC) in physiological saline at 37° C. and then were fixed in 10% formalin. The stained slices were photographed and subsequently measured for the surface area of the slices and the ischemic lesion area. Ischemic lesion volume was calculated as by the sums of the areas of ischemic lesion across the five slices divided by the total cross sectional area of these five brain slices.

[8] = 5 mm Silastic tube 24 hours prior to MCAO, sacrifice 24 hours after MCAO, vs sham
[9] = Total of all planned sacrifice times
[10] = planned sacrifice 1 Day after MCAO
[11] = planned sacrifice 1 Week after MCAO
[12] = planned sacrifice 6 hrs after MCAO

C[C@]12CC[C@@H]3c4ccc(O)cc4CC[C@H]3[C@@H]1CC[C@H]2O [17α-estradiol]
reduction of ischemic area, slice C [1, 8]: 55% | reduction of ischemic area, slice D [1, 8]: 66% | reduction of ischemic area, slice E [1, 8]: 81% | protective effect in tissue slices A-E (FIG. 3) ([1]; sustained subcutaneous delivery initiated 24 hours prior to ischemic event): significant protective effect

C[C@]12CC[C@@H]3c4ccc(O)cc4CC[C@H]3[C@@H]1CC[C@@H]2O [17β-estradiol]
reduction of ischemic lesion size of the whole coronal section, region C ([1]; 10 μg/kg sc injection two hours prior to MCAO, sacrifice at 24 hours, 9 mm caudal to olfactory bulb): 46.3% | reduction of ischemic lesion size of the whole coronal section, region D ([1]; 10 μg/kg sc injection two hours prior to MCAO, sacrifice at 24 hours, 11 mm caudal to olfactory bulb): 44.1% | Number of Animals Alive [1, 9]: 14 | Number of Animals Dead [1, 9]: 4 | % Survival ([1]; Total of all planned sacrifice times, pretreatment 24 hours prior to MCAO): 78% | % Survival ([1]; Total of all planned sacrifice times, pretreatment 24 hours prior to MCAO, listed as E2 Implant): 78* % | Number of Animals Alive [1, 10]: 8 | Number of Animals Dead [1, 10]: 0 | % Survival ([1]; planned sacrifice 1 Day after MCAO, pretreatment 24 hours prior to MCAO): 100* % | Number of Animals Alive [1, 11]: 3 | Number of Animals Dead [1, 11]: 1 | % Survival ([1]; planned sacrifice 1 Week after MCAO, pretreatment 24 hours prior to MCAO): 75* % | Number of Animals Alive [1, 12]: 3 | Number of Animals Dead [1, 12]: 3 | % Survival ([1]; planned sacrifice 6 hrs after MCAO, pretreatment 24 hours prior to MCAO): 50% | ischemic lesion, percent of cross-sectional area of brain sections ([1]; pretreatment 24 hours prior to MCAO, 3 brain slices, sacrifice 1 day or 1 week, sham 25.6±5.7%): 9.8±4.0% | mortality ([1]; pretreatment of ovariectomized rats before MCAO, untreated 65%): 22% | protective effect in tissue slices A-D (FIG. 2) ([1]; subcutaneous injection two hours prior to ischemic event): significant protective effect | reduction of ischemic area ([2]; administered 40 minutes after MCAO, range over slices): 45-90% | reduction of ischemic area (area under the ischemic curve) ([2]; administered 90 minutes after MCAO): 31% | cell loss saved vs control ([3]; medium glucose 20 mg %): 23. % | cell loss saved vs control ([3]; medium glucose 40 mg %): 28.4% | cell loss saved vs control ([3]; medium glucose 100 mg %): 35.9% | difference in percent cell death with and without estrogen ([3]; normal glucose 200 mg %): Little difference | reduction of cell death ([4]; 1 hour anoxic insult): 28.4% | reduction of cell death ([4]; 4 hour anoxic insult): 18.4% | protection of BCEC from cumulative effect of hypoglycemia and anoxia [5]: effective in protecting cultured BCEC | protection, ischemic lesion volume [6]: significant protection | infarct area (mean±SEM) [7]: 5.3±1.6 | reduction of infarct ([7]; 100 μg/kg sc in oil 2 hours prior to MCA occlusion, vs vehicle): 60%

C[C@@]12CC[C@H]3c4ccc(O)cc4CC[C@@H]3[C@H]1CC[C@H]2O [ent-17β-estradiol, (8α,9β,13α,14β,17α)-estra-1,3,5(10)-triene-3,17-diol]
effectiveness in reducing percent lesion volume compared with 17β-estradiol ([7]; 100 μg/kg sc in oil): as effective in reducing the percent lesion volume as 17β-estradiol; also recorded: as effective a therapeutic agent as 17β-estradiol | infarct area (mean±SEM) [7]: 5.3±1.7
